Legend:
Haemonchus contortus L3 = experiment: microbe, parasite or virus in culture; type: cell-based; settings: for minimal effective concentration: Haemonchus contortus, 96 h, read-out: HcL3 Minimal Effective Concentration (MEC)
D. immitis microfilariae = experiment: Dirofilaria immitis, microfilariae (DiMF) in vitro motility assay; type: cell-based; settings: for minimal effective concentration: Dirofilaria immitis, 72 h, read-out: DiMF minimally effective dose (MEC)

O=C(NCc1ccnc(Cl)c1)n1c2c(c3cc(OC(F)(F)F)c(Cl)cc31)CN(C/C=C/c1ccc(Cl)cc1)CC2 [Example 496, (E)-7-chloro-2-(3-(4-chlorophenyl)allyl)-N-((2-chloropyridin-4-yl)methyl)-8-(trifluoromethoxy)-1,2,3,4-tetrahydro-5H-pyrido[4,3-b]indole-5-carboxamide]
minimal effective concentration (Haemonchus contortus L3): 1 µM | minimal effective concentration (D. immitis microfilariae): 5.7 µM

N-((2-chloropyridin-4-yl)methyl)-2-((6-fluoronaphthalen-2-yl)methyl)-7-(trifluoromethoxy)-1,2,3,4-tetrahydro-5H-pyrido[4,3-b]indole-5-carboxamide [Example 366]
HcL3 Minimal Effective Concentration (MEC) (Haemonchus contortus L3): >100 µM | DiMF minimally effective dose (MEC) (D. immitis microfilariae; decrease in microfilariae motility by subjective visual assessment, observed at 72 hours): 2.4 µM

N#Cc1ccc2c(c1)c1c(n2C(=O)NCc2ccnc(Cl)c2)CCN(C/C=C/c2ccc(F)c(F)c2F)C1 [Example 80, (E)-N-((2-chloropyridin-4-yl)methyl)-8-cyano-2-(3-(2,3,4-trifluorophenyl)allyl)-1,2,3,4-tetrahydro-5H-pyrido[4,3-b]indole-5-carboxamide]
minimal effective concentration (Haemonchus contortus L3): 0.06 µM | minimal effective concentration (D. immitis microfilariae): > 100 µM

N#Cc1ccc(-c2ccc3c(c2)c2c(n3C(=O)NCc3ccnc(F)c3)CCN(C/C=C/c3ccc(Cl)cc3)C2)cn1 [Example 460, (E)-2-(3-(4-chlorophenyl)allyl)-8-(6-cyanopyridin-3-yl)-N-((2-fluoropyridin-4-yl)methyl)-1,2,3,4-tetrahydro-5H-pyrido[4,3-b]indole-5-carboxamide]
minimal effective concentration (Haemonchus contortus L3): > 100 µM | minimal effective concentration (D. immitis microfilariae): 57.4 µM

O=C(NCc1ccnc(Cl)c1)n1c2c(c3ccc(Br)cc31)CN(C/C=C/c1ccc(Cl)c(F)c1)CC2 [Example 437, (E)-7-bromo-2-(3-(4-chloro-3-fluorophenyl)allyl)-N-((2-chloropyridin-4-yl)methyl)-1,2,3,4-tetrahydro-5H-pyrido[4,3-b]indole-5-carboxamide]
minimal effective concentration (Haemonchus contortus L3): 1 µM | minimal effective concentration (D. immitis microfilariae): 10 µM

O=C(NCc1ccnc(Cl)c1)n1c2c(c3cc(F)c(Cl)cc31)CN(C/C=C/c1ccc(F)c(F)c1)CC2 [Example 300, (E)-7-chloro-N-((2-chloropyridin-4-yl)methyl)-2-(3-(3,4-difluorophenyl)-allyl)-8-fluoro-1,2,3,4-tetrahydro-5H-pyrido[4,3-b]indole-5-carboxamide]
minimal effective concentration (Haemonchus contortus L3): 0.5 µM | minimal effective concentration (D. immitis microfilariae): 10 µM

O=C(NCc1ccnc(Cl)c1)n1c2c(c3cc(C(F)(F)F)ccc31)CN(C/C=C/c1ccc(F)c(F)c1)CC2 [Example 414, (E)-N-((2-chloropyridin-4-yl)methyl)-2-(3-(3,4-difluorophenyl)allyl)-8-(trifluoromethyl)-1,2,3,4-tetrahydro-5H-pyrido[4,3-b]indole-5-carboxamide]
minimal effective concentration (Haemonchus contortus L3): 1 µM | minimal effective concentration (D. immitis microfilariae): 10 µM

N#Cc1ccc2c(c1)c1c(n2C(=O)NCc2ccnc(Cl)c2)CCN(C/C=C/c2cc(F)c(F)c(F)c2)C1 [Example 89, (E)-N-((2-chloropyridin-4-yl)methyl)-8-cyano-2-(3-(3,4,5-trifluorophenyl)allyl)-1,2,3,4-tetrahydro-5H-pyrido[4,3-b]indole-5-carboxamide]
minimal effective concentration (Haemonchus contortus L3): 0.1 µM | minimal effective concentration (D. immitis microfilariae): 1 µM

O=C(NCc1ccnc(Cl)c1)n1c2c(c3ccc(Cl)cc31)CN(C/C=C/c1ccc(F)c(Cl)c1)CC2 [Example 210, (E)-7-chloro-2-(3-(3-chloro-4-fluorophenyl)allyl)-N-((2-chloropyridin-4-yl)methyl)-1,2,3,4-tetrahydro-5H-pyrido[4,3-b]indole-5-carboxamide]
minimal effective concentration (Haemonchus contortus L3): 3.3 µM | minimal effective concentration (D. immitis microfilariae): 10 µM

N#Cc1ccc2c(c1)c1c(n2C(=O)NCc2ccnc(F)c2)CCN(C/C=C/c2cc(F)c(F)c(F)c2)C1 [Example 116, (E)-8-cyano-N-((2-fluoropyridin-4-yl)methyl)-2-(3-(3,4,5-trifluorophenyl)allyl)-1,2,3,4-tetrahydro-5H-pyrido[4,3-b]indole-5-carboxamide]
minimal effective concentration (Haemonchus contortus L3): 0.1 µM | minimal effective concentration (D. immitis microfilariae): 1.3 µM

Cc1ccc2c(c1)c1c(n2C(=O)NCc2ccnc(Cl)c2)CCN(C/C=C/c2ccc(C(F)(F)F)cc2)C1 [Example 435, (E)-N-((2-chloropyridin-4-yl)methyl)-8-methyl-2-(3-(4-(trifluoromethyl)-phenyl)allyl)-1,2,3,4-tetrahydro-5H-pyrido[4,3-b]indole-5-carboxamide]
minimal effective concentration (Haemonchus contortus L3): 5.7 µM | minimal effective concentration (D. immitis microfilariae): 5.7 µM

O=C(NCc1ccnc(Cl)c1)n1c2c(c3cc(Br)ccc31)CN(C/C=C/c1ccc(F)c(F)c1)CC2 [Example 183, (E)-8-bromo-N-((2-chloropyridin-4-yl)methyl)-2-(3-(3,4-difluorophenyl)allyl)-1,2,3,4-tetrahydro-5H-pyrido[4,3-b]indole-5-carboxamide]
minimal effective concentration (Haemonchus contortus L3): 0.5 µM | minimal effective concentration (D. immitis microfilariae): 18.2 µM

O=C(NCc1ccnc(F)c1)n1c2c(c3cc(Cl)ccc31)CN(C/C=C/c1ccc(F)c(Cl)c1)CC2 [Example 258, (E)-8-chloro-2-(3-(3-chloro-4-fluorophenyl)allyl)-N-((2-fluoropyridin-4-yl)methyl)-1,2,3,4-tetrahydro-5H-pyrido[4,3-b]indole-5-carboxamide]
minimal effective concentration (Haemonchus contortus L3): 10 µM | minimal effective concentration (D. immitis microfilariae): 100 µM

O=C(NCc1ccnc(Cl)c1)n1c2c(c3cc(Br)c(Cl)cc31)CN(C/C=C/c1ccc(Cl)cc1)CC2 [Example 196, (E)-8-bromo-7-chloro-2-(3-(4-chlorophenyl)allyl)-N-((2-chloropyridin-4-yl)methyl)-1,2,3,4-tetrahydro-5H-pyrido[4,3-b]indole-5-carboxamide]
minimal effective concentration (Haemonchus contortus L3): 0.3 µM | minimal effective concentration (D. immitis microfilariae): 5.7 µM

O=C(NCc1ccnc(Cl)c1)n1c2c(c3cc4c(cc31)COC4)CN(C/C=C/c1ccc(C(F)(F)F)cc1)CC2 [Example 482, (E)-N-((2-chloropyridin-4-yl)methyl)-8-(3-(4-(trifluoromethyl)phenyl)allyl)-1,3,6,7,8,9-hexahydro-5H-furo[3,4-f]pyrido[4,3-b]indole-5-carboxamide]
minimal effective concentration (Haemonchus contortus L3): 1.8 µM | minimal effective concentration (D. immitis microfilariae): 3.3 µM

O=C(NCc1ccnc(Cl)c1)n1c2c(c3ccc(OC(F)(F)F)cc31)CN(Cc1cc3ccc(Cl)cc3cn1)CC2 [Example 365, 2-((7-chloroisoquinolin-3-yl)methyl)-N-((2-chloropyridin-4-yl)methyl)-7-(trifluoromethoxy)-1,2,3,4-tetrahydro-5H-pyrido[4,3-b]indole-5-carboxamide]
minimal effective concentration (Haemonchus contortus L3): > 100 µM | minimal effective concentration (D. immitis microfilariae): 4.4 µM

O=C(NCc1ccnc(Cl)c1)n1c2c(c3cc(C(F)(F)F)ccc31)CN(C/C=C/c1ccc(F)cc1)CC2 [Example 334, (E)-N-((2-chloropyridin-4-yl)methyl)-2-(3-(4-fluorophenyl)allyl)-8-(trifluoromethyl)-1,2,3,4-tetrahydro-5H-pyrido[4,3-b]indole-5-carboxamide]
minimal effective concentration (Haemonchus contortus L3): 1 µM | minimal effective concentration (D. immitis microfilariae): 10 µM

O=C(NCc1ccnc(Cl)c1)n1c2c(c3cc(OC(F)(F)F)ccc31)CN(C/C=C/c1ccc(Cl)c(Cl)c1)CC2 [Example 392, (E)-N-((2-chloropyridin-4-yl)methyl)-2-(3-(3,4-dichlorophenyl)allyl)-8-(trifluoromethoxy)-1,2,3,4-tetrahydro-5H-pyrido[4,3-b]indole-5-carboxamide]
minimal effective concentration (Haemonchus contortus L3): 1 µM | minimal effective concentration (D. immitis microfilariae): 22.2 µM

N#Cc1ccc(/C=C/CN2CCc3c(c4ccc(OC(F)(F)F)cc4n3C(=O)NCc3ccnc(Cl)c3)C2)cc1 [Example 351, (E)-N-((2-chloropyridin-4-yl)methyl)-2-(3-(4-cyanophenyl)allyl)-7-(trifluoromethoxy)-1,2,3,4-tetrahydro-5H-pyrido[4,3-b]indole-5-carboxamide]
minimal effective concentration (Haemonchus contortus L3): 0.7 µM | minimal effective concentration (D. immitis microfilariae): 32.3 µM

O=C(NCc1ccnc(Cl)c1)n1c2c(c3c(C(F)(F)F)cccc31)CN(C/C=C/c1ccc(C(F)(F)F)cc1)CC2 [Example 162, (E)-N-((2-chloropyridin-4-yl)methyl)-9-(trifluoromethyl)-2-(3-(4-(trifluoromethyl)-phenyl)allyl)-1,2,3,4-tetrahydro-5H-pyrido[4,3-b]indole-5-carboxamide]
minimal effective concentration (Haemonchus contortus L3): > 100 µM | minimal effective concentration (D. immitis microfilariae): 10 µM

O=C(NCc1ccnc(F)c1)n1c2c(c3ccc(Cl)cc31)CN(C/C=C/c1ccc(F)c(Cl)c1)CC2 [Example 227, (E)-7-chloro-2-(3-(3-chloro-4-fluorophenyl)allyl)-N-((2-fluoropyridin-4-yl)methyl)-1,2,3,4-tetrahydro-5H-pyrido[4,3-b]indole-5-carboxamide]
minimal effective concentration (Haemonchus contortus L3): 5.7 µM | minimal effective concentration (D. immitis microfilariae): 1.8 µM

O=C(NCc1ccnc(Cl)c1)n1c2c(c3c(Cl)cccc31)CN(C/C=C/c1ccc(Cl)cc1)CC2 [Example 214, (E)-9-chloro-2-(3-(4-chlorophenyl)allyl)-N-((2-chloropyridin-4-yl)methyl)-1,2,3,4-tetrahydro-5H-pyrido[4,3-b]indole-5-carboxamide]
minimal effective concentration (Haemonchus contortus L3): 0.5 µM | minimal effective concentration (D. immitis microfilariae): 18.2 µM

N#Cc1ccc2c3c(n(C(=O)NCc4ccnc(Cl)c4)c2c1)CCN(C/C=C/c1c(F)c(F)c(F)c(F)c1F)C3 [Example 16, (E)-N-((2-chloropyridin-4-yl)methyl)-7-cyano-2-(3-(perfluorophenyl)allyl)-1,2,3,4-tetrahydro-5H-pyrido[4,3-b]indole-5-carboxamide]
minimal effective concentration (Haemonchus contortus L3): > 100 µM | minimal effective concentration (D. immitis microfilariae): > 100 µM

N#Cc1ccc2c(c1)c1c(n2C(=O)NCc2ccnc(F)c2)CCN(C/C=C/c2ccc(F)c(C#N)c2)C1 [Example 113, (E)-8-cyano-2-(3-(3-cyano-4-fluorophenyl)allyl)-N-((2-fluoropyridin-4-yl)methyl)-1,2,3,4-tetrahydro-5H-pyrido[4,3-b]indole-5-carboxamide]
minimal effective concentration (Haemonchus contortus L3): 1.3 µM | minimal effective concentration (D. immitis microfilariae): > 100 µM

— patent US10570129B2 (Zoetis Services LLC, priority 2015, dated 2020)
